Reference: article PMC10815964, “Cyclobutanone Inhibitors of Diaminopimelate Desuccinylase (DapE) as Potential New Antibiotics” (International Journal of Molecular Sciences, 2024)
Where “and” joins values, the source holds several entries; their conditions need not be identical. Equal entries are not always repeated. Where two headings read alike, the source gives them in different places. Blank lines part the entries; values can stand above or below the compound they belong to.

Assays:
HiDapE = HiDapE (Haemophilus influenzae, UniProt P44514); assay: DapE inhibition, ninhydrin-based assay; type: biochemical
Experimental: All compounds were screened for DapE inhibitory potency using a ninhydrin-based assay at 100 μM, and IC50 values were determined for molecules that inhibited DapE > 70% at 100 μM (Table 1). Some SAR trends emerge from the data.
Experimental IC50 curves for cyclobutanone inhibitors against DapE were identified as sigmoidal shaped response curves, as opposed to simple hyperbolic plots. […] IC50 curves with the corresponding Hill coefficients are reported in the Supplementary Materials as Figures S74−S81. Experimental Hill coefficients may provide information on the number of binding sites of a biological target (receptors and enzymes) interacting with ligands.
The inhibition of HiDapE by potential inhibitors was assessed using the previously developed ninhydrin assay with slight modifications. It was performed in a PCR Thermal Cycler System. All experiments were performed in triplicate in 50 mM HEPES buffer at pH 7.5. Reaction volumes were 100 µL of 2 mM N^6-Methyl-L,L-SDAP and 8 nM HiDapE. Ninhydrin was purchased as a 2% solution in 100% DMSO/lithium acetate buffer at pH 5.2. The inhibitor, followed by HiDapE, was added to a 50 mM HEPES (pH 7.5) buffered solution at 30 °C, and the mixture was incubated at 30 °C for 10 min. N^6-Methyl-L,L-SDAP was added, and the reaction mixture was incubated at 30 °C for 10 min, then heated to 99 °C for 1 min, and further cooled to 0 °C for 1 min. The 2% ninhydrin solution (50 µL) was added, and the mixture was thoroughly mixed. The reaction mixture was heated to 80 °C for 15 min, then cooled to 0 °C for 1 min. The absorbance of an 80 μL aliquot was recorded at 570 nm on a BioTek Synergy 2 microplate reader. All the inhibition assays of HiDapE were performed in triplicate and the IC50 values were obtained by fitting the data following the modified Hill equation: V = V0 + (Vmax − V0) XnH/(XnH0.5 + XnH) using the graphing suite Origin 9.1 with the Levenberg–Marquardt non-linear least-squares algorithm. The velocity in the absence of the substrate is […]; the velocity at saturating concentrations of the substrate or with no inhibitor for the inhibition assay is Vmax; X is the concentration of the substrate or inhibitor; and X0.5 is the substrate (S0.5) and inhibitor (I0.5) concentration at 50% maximum velocity and at 50% inhibition, respectively. The Hill coefficient is represented as nH.

[1] = biological target: H. influenzae DapE (HiDapE) (Haemophilus influenzae, UniProt P44514); assay: Thermal shift assay (SYPRO Orange); type: binding
Experimental: A thermal shift assay was conducted to observe changes in the thermal stability of DapE under various concentrations of the inhibitor 3y, as summarized in Table 2. These studies were conducted on a Step One Real-Time PCR System and associated QuantStudio software (QuantStudio 5, Design and Analysis 2) through the fluorescence of the SYPRO Orange dye during protein denaturation. […] Upon addition of the inhibitor 3y, we observed a stabilization of the tertiary structure of the enzyme binding to the inhibitor, as indicated by a positive shift in the first melt temperature (Tm1). […] The thermal shift assay plot of Tm vs. log [3y (µM)] to determine the Ki of compound 3y is in the Supplementary Materials as Figure S82. […] Binding of a ligand most commonly leads to further stabilization of a protein, but destabilization as indicated by a lower Tm has been observed by others. Based on our previous work, [27] we observed sequential temperatures at which HiDapE was dissociating via circular dichroism: first at about 60 °C, which we hypothesize is the dimer dissociating, and a second at about 80 °C, which may represent denaturation of the monomer.
H. influenzae DapE was used at a final concentration of 200 nM and SYPRO Orange was used at a final concentration of 10×. It was performed in a Step One Real-Time PCR System (Applied Biosystems, Waltham, MA, USA). The experiment was carried out in 10 µL triplicates in 50 mM HEPES buffer at pH 7.5, nanopure water, and the inhibitor concentrations were based on the IC50 values of the inhibitor, 3y. Sample solutions were dispensed into a 96-well optical reaction plate (Thermo Fisher Scientific, Waltham, […], USA) and the plate was sealed with an optical PCR plate sheet (Thermo Fisher Scientific). […] Melting curves were obtained from the negative derivative and exported from the instrument into Excel. The negative melting temperatures were smoothed and differentiated to the negative third derivative. The Tm data were plotted against the log(concentration of 3y) with GraphPad Prism using a derived Van’t Hoff equation [39] to find the Ki value.

[2] = Cyclobutanone/hydrate equilibrium by NMR; type: physicochemical
From the text: Cyclobutanone 3y is soluble in CDCl3, but we wanted to vary the amount of D2O, and water has a solubility of only 0.815% in chloroform, so varying the quantity of D2O would not alter the concentration of D2O in CDCl3 solution once saturation is reached. We therefore selected DMSO-d6 as the solvent to enable the varying of the D2O concentration, which also provides a more polar environment that is more conducive to hydrate formation and is a better mimic of the environment of the enzyme in aqueous media. The ratio of hydrate to ketone was determined by the ratio of the integrals of the proton alpha to the hydrate/carbonyl and the α-amino group, which was 4.67 ppm for the hydrate in DMSO-d6 + 20% D2O and 4.40 ppm for the cyclobutanone ketone in DMSO-d6 + 20% D2O.
Cyclobutanone 3y was massed to 2–3 mg and the exact mass was recorded. Compound 3y was then dissolved in the appropriate amount of deuterated solvent (DMSO-d6 or CDCl3) and vortexed. The appropriate amount of deuterium oxide (0%, 2%, 10%, 20%, or 30%) was added to the sample and the sample was vortexed. The sample was inserted into the Bruker 500 MHz NMR and data were collected for 64 scans. The raw data were analyzed with the Mnova NMR program, and the Keq was calculated via the method described by the Wiberg group.

[3] = parameters: method as in doi:10.1021/ja00103a024; details: in D2O, cited from earlier work
DapE = details: cited from earlier work

Sequence of H. influenzae DapE (HiDapE) (P44514 whole entry): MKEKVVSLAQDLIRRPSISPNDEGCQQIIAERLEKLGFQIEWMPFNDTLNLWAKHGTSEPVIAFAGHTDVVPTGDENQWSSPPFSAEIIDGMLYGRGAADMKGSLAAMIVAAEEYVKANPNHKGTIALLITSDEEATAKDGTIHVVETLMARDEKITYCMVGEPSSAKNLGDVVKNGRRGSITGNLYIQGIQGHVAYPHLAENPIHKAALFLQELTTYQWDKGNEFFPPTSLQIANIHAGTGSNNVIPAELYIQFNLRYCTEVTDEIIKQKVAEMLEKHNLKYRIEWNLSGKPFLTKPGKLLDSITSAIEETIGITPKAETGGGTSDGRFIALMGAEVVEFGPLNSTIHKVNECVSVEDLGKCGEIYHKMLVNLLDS
Sequence of HiDapE (P44514 whole entry): as above

inhibition at 100 µM (HiDapE; 100 µM inhibitor, read-out: DapE % Inhib at 100 µM): 99.7%
IC50 (HiDapE; ninhydrin assay): 23.1 ± 0.9 µM
Tm1 ([1]; 200 nM HiDapE + 1 μM 3y): 49.6 +/− 0.18 °C
Tm2 ([1]; 200 nM HiDapE + 1 μM 3y): 76.5 +/− 0.54 °C
Tm1 ([1]; 200 nM HiDapE + 5 μM 3y): 49.0 +/− 0.30 °C
Tm2 ([1]; 200 nM HiDapE + 5 μM 3y): 77.3 +/− 0.20 °C
Tm1 ([1]; 200 nM HiDapE + 10 μM 3y): 50.0 +/− 0.34 °C
Tm2 ([1]; 200 nM HiDapE + 10 μM 3y): 77.3 +/− 0.23 °C
Tm1 ([1]; 200 nM HiDapE + 20 μM 3y): 51.2 +/− 0.13 °C
Tm2 ([1]; 200 nM HiDapE + 20 μM 3y): 77.3 +/− 0.51 °C
Tm1 ([1]; 200 nM HiDapE + 30 μM 3y): 52.1 +/− 0.5 °C
Tm2 ([1]; 200 nM HiDapE + 30 μM 3y): 75.1 +/− 0.17 °C
Tm1 ([1]; 200 nM HiDapE + 40 μM 3y): 52.7 +/− 0.37 °C
Tm2 ([1]; 200 nM HiDapE + 40 μM 3y): 75.2 +/− 0.11 °C
Tm1 ([1]; 200 nM HiDapE + 50 μM 3y): 53.4 +/− 0.23 °C
Tm2 ([1]; 200 nM HiDapE + 50 μM 3y): 74.7 +/− 0.40 °C
Tm1 ([1]; 200 nM HiDapE + 60 μM 3y): 54.1 +/− 0.35 °C
Tm2 ([1]; 200 nM HiDapE + 60 μM 3y): 75.1 +/− 0.23 °C
Tm1 ([1]; 200 nM HiDapE + 75 μM 3y): 54.6 +/− 0.42 °C
Tm2 ([1]; 200 nM HiDapE + 75 μM 3y): 75.7 °C and 75.7 +/− 0.29 °C
Ki ([1]; from Tm1 vs log[3y], 200 nM HiDapE): 10.2 µM
% Hydrate ([2]; CDCl3 + 30% D2O): 7.33%
Keq = [hydrate]/[ketone] ([2]; CDCl3 + 30% D2O (saturated with D2O)): 0.082
% Hydrate ([2]; DMSO-d6 + 2% D2O): 35.4%
Keq = [hydrate]/[ketone] ([2]; DMSO-d6 + 2% D2O): 0.58
% Hydrate ([2]; DMSO-d6 + 10% D2O): 38.8%
Keq = [hydrate]/[ketone] ([2]; DMSO-d6 + 10% D2O): 0.61
% Hydrate ([2]; DMSO-d6 + 20% D2O): 40%
melting point: 179 to 181 °C
SMILES: COc1ccc(S(=O)(=O)N[C@@H](C(=O)NC2CCC2=O)C(C)C)cc1 (mixture of isomers) [3y, (2R)-2-((4-Methoxyphenyl)sulfonamido)-3-methyl-N-(2-oxocyclobutyl)butanamide]

SMILES: O=C1CCC1 [Cyclobutanone, cyclobutanone]
% Hydrate [3]: 2.0%
Keq = [hydrate]/[ketone] [3]: 2.8 × 10^−3
% Hydrate ([3]; listed as cyclobutanone): about 2%

SMILES: C[C@H](CS)C(=O)N1CCC[C@H]1C(=O)O [captopril]
DapE inhibition (DapE): low micromolar inhibitor
